The record followed here is patent publication US10913742B2, “Oxadiazolones as transient receptor potential channel inhibitors” (Genentech, Inc., priority 2017, dated 2021).

A short description of data set [1]: Rat IV PK (hepatic clearance). The class given is in vivo. The following applies: rat IV dose of 1 mg/kg. The protocol:
(§1) Certain pharmacokinetic attributes were evaluated for some compounds of the present disclosure. […] The compounds of the present disclosure were discovered to provide for an unexpected combination of high potency as measured by hTRPA1 IC50 and high stability as measured by RLM-CLhep, HLM-CLhep and Rat IV PK.

Data set [2] in a line: Rat liver microsome clearance (RLM-CLhep). The class given is in vitro ADME. To be noted: 0.5 mg/ml protein, 1 mM NADPH, 1 μM compound, 37° C. As to the method:
as §1
(§2) The reactions were incubated at 37° C. for 0, 20, 40 and 60 minutes and at each allotted time point an aliquot of the reaction mixture was added to ice-cold acetonitrile with internal standard. The samples were subsequently centrifuged at 3000×g for 10 minutes and supernatant was diluted in water before LC-MS/MS analysis.
On the technique in general: Liver microsomes are a subcellular fraction often used to study metabolism.

A short description of data set [3]: Human liver microsome clearance (HLM-CLhep). The class given is in vitro ADME. To be noted: 0.5 mg/ml protein, 1 mM NADPH, 1 μM compound, 37° C. As to the method: as §1, §2
Another data set deals with human TRPA1 (Homo sapiens (Human), UniProt O75762). Nature of the data set: hTRPA1 CHO Ca2+ FLIPR assay (block of cinnamaldehyde induced calcium influx). The class given is cell-based. In outline:
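CHO cells expressing TRPA1 loaded with calcium dye (1 h at 37° C, then 15 min at room temperature) in HBSS/20 mM HEPES pH 7.4/0.02% BSA. Compounds preincubated 20 min at room temperature before cinnamaldehyde addition, with FLIPR Ca2+ readout. IC50 from Hill fit, n fixed at 1.5.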

The mark [4] stands for this setting: repeated from Table 1, read-out: hTRPA1 IC50.
Setting [5] is: CHO cells expressing TRPA1, 75 uM cinnamaldehyde, Hill coefficient fixed to 1.5, read-out: hTRPA1 (hTRPA1 CHO Ca2+ MAX EVO (IC50)).

Where two headings read alike, the source gives them in different places.

Chain of human TRPA1 (O75762 whole entry): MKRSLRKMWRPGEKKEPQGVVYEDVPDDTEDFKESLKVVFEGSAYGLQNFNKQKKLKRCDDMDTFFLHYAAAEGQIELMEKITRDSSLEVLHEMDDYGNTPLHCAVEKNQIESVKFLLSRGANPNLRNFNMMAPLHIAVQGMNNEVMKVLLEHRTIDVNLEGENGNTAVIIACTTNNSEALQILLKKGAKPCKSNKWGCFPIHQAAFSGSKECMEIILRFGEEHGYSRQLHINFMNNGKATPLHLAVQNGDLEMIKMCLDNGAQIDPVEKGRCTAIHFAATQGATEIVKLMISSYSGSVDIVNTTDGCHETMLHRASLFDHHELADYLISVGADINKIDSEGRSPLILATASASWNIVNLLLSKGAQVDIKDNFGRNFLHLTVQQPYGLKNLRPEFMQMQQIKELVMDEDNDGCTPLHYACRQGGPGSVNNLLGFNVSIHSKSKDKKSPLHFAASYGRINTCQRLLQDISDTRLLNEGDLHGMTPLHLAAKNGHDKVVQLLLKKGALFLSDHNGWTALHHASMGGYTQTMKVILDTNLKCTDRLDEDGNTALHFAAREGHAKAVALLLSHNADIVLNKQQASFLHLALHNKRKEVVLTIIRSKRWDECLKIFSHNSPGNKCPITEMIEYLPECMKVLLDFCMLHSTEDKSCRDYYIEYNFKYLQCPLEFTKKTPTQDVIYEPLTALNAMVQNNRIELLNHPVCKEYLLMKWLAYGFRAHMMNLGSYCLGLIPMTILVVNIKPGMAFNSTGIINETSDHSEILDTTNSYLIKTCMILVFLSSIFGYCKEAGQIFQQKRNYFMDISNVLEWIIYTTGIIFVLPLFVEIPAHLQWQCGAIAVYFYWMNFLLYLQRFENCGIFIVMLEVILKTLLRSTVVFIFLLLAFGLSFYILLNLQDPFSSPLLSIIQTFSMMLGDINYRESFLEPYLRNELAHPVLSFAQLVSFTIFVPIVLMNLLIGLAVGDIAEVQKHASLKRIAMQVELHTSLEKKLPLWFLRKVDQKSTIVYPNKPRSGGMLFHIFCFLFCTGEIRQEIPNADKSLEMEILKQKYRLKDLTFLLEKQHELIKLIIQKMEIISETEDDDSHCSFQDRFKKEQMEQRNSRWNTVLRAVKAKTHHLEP

Turning to `Cn1cnc2ncn(Cc3nn(C[C@@H](F)c4ccc(Cl)cc4)c(=O)o3)c(=O)c21` [Example Compound 14, (S)-3-(2-(4-chlorophenyl)-2-fluoroethyl)-5-((7-methyl-6-oxo-6H-purin-1 (7H)-yl)methyl)-1,3,4-oxadiazol-2(3H)-one], the “Rat IV PK (hepatic clearance)” value in data set [1] was found to be 17 mL/min/kg. In data set [2], the “RLM-CLhep (rat liver microsome clearance)” value stood at 28 mL/min/kg. Besides, the “HLM-CLhep (human liver microsome clearance)” value in data set [3] came to 6 mL/min/kg. In addition, the 50% inhibitory concentration (IC50) (in general, the concentration that inhibits the measured activity by half) on human TRPA1 (setting [4]) turned out to be 34 nM.
On the same counts, the results for `Cn1cnc2ncn(Cc3nn(CCc4ccc(Cl)cc4)c(=O)o3)c(=O)c21` [Example Compound 1, 3-[2-(4-chlorophenyl)ethyl]-5-[(7-methyl-6-oxo-purin-1-yl)methyl]-1,3,4-oxadiazol-2-one] are 48 mL/min/kg, 34 mL/min/kg, 11 mL/min/kg and 95 nM.
With `Cn1cnc2ncn(Cc3nn([C@H]4C[C@H](c5ccc(Cl)cc5)C4)c(=O)o3)c(=O)c21` [Example Compound 50, 3-[3-(4-chlorophenyl)cyclobutyl]-5-[(7-methyl-6-oxo-purin-1-yl)methyl]-1,3,4-oxadiazol-2-one], the “Rat IV PK (hepatic clearance)” value in data set [1] is given as 10 mL/min/kg. Moreover, the “RLM-CLhep (rat liver microsome clearance)” value in data set [2] turned out to be 12 mL/min/kg. For the same molecule, the “HLM-CLhep (human liver microsome clearance)” value in data set [3] was found to be 5 mL/min/kg.
Regarding `O=c1c2cccnc2ncn1Cc1nn([C@@H]2CC[C@@H](c3ccc(F)cc3)C2)c(=O)o1` (racemic) [compound 78, 5-[(4-oxopyrido[2,3-d]pyrimidin-3-yl)methyl]-3-[rac-(1R,3R)-3-(4-fluorophenyl)cyclopentyl]-1,3,4-oxadiazol-2-one], on human TRPA1 (setting [5]), the half-inhibitory concentration (IC50) is 40.6 nM.
The same measure, in the same setting: for `Cn1cnc2ncn(Cc3nn(CCc4ccc(OC(F)(F)F)cc4)c(=O)o3)c(=O)c21` [compound 10, 5-((7-methyl-6-oxo-6H-purin-1(7H)-yl)methyl)-3-(4-(trifluoromethoxy)phenethyl)-1,3,4-oxadiazol-2(3H)-one] the value was 86 nM; for `Cn1cnc2ncn(Cc3nn(CCc4ccc5ccccc5c4)c(=O)o3)c(=O)c21` [compound 12, 5-((7-methyl-6-oxo-6H-purin-1(7H)-yl)methyl)-3-(2-(naphthalen-2-yl)ethyl)-1,3,4-oxadiazol-2(3H)-one], 41 nM.
Still for that read-out and setting: for `Cc1cnnc2ncn(Cc3nn(CCc4ccc(Cl)cc4)c(=O)o3)c(=O)c12` [compound 27, 3-(4-chlorophenethyl)-5-((4-methyl-5-oxopyridazino[3,4-d]pyrimidin-6(5H)-yl)methyl)-1,3,4-oxadiazol-2(3H)-one] the value was 49 nM; for `Cn1cnc2ncn(Cc3nn([C@H]4C[C@H](Oc5cccc(F)c5)C4)c(=O)o3)c(=O)c21` [compound 63, trans-3-[3-(3-fluorophenoxy)cyclobutyl]-5-[(7-methyl-6-oxo-purin-1-yl)methyl]-1,3,4-oxadiazol-2-one], 11.5 nM.
On the same count and under the same terms, for `Cc1cncc2ncn(Cc3nn(CCc4ccc(Cl)cc4)c(=O)o3)c(=O)c12` [compound 6, 3-(4-chlorophenethyl)-5-((5-methyl-4-oxopyrido[3,4-d]pyrimidin-3(4H)-yl)methyl)-1,3,4-oxadiazol-2(3H)-one] the value was 13 nM; for `Cn1cnc2ncn(Cc3nn(CCc4ccc(C(F)F)cc4)c(=O)o3)c(=O)c21` [compound 18, 3-(4-(difluoromethyl)phenethyl)-5-((7-methyl-6-oxo-6H-purin-1(7H)-yl)methyl)-1,3,4-oxadiazol-2(3H)-one], 509 nM; for `Cc1ccnc2ncn(Cc3nn(CCc4ccc(C#N)cc4)c(=O)o3)c(=O)c12` [compound 8, 4-[2-[5-[(5-methyl-4-oxo-pyrido[2,3-d]pyrimidin-3-yl)methyl]-2-oxo-1,3,4-oxadiazol-3-yl]ethyl]benzonitrile], 166 nM.
For the molecule `COc1ccc(CCn2nc(Cn3cnc4ncn(C)c4c3=O)oc2=O)cc1` [compound 11, 3-(4-methoxyphenethyl)-5-((7-methyl-6-oxo-6H-purin-1(7H)-yl)methyl)-1,3,4-oxadiazol-2(3H)-one], the IC50 on human TRPA1 (setting [5]) stood at 278 nM.
For the molecule `Cc1cnc(C#N)c2ncn(Cc3nn(CCc4ccc(Cl)cc4)c(=O)o3)c(=O)c12` [compound 43], the IC50 at human TRPA1 (setting [5]) was 18 nM.
On the same count and under the same terms, for `Cn1cnc2ncn(Cc3nn([C@H]4C[C@H](c5ccc(F)cc5)C4)c(=O)o3)c(=O)c21` [compound 112, 3-[3-(4-fluorophenyl)cyclobutyl]-5-[(7-methyl-6-oxo-purin-1-yl)methyl]-1,3,4-oxadiazol-2-one] the value was 64.8 nM; for `Cn1cnc2ncn(Cc3nn(CCc4ccc(-c5ccccc5)cc4)c(=O)o3)c(=O)c21` [compound 55, 5-[(7-methyl-6-oxo-purin-1-yl)methyl]-3-[2-(4-phenylphenyl)ethyl]-1,3,4-oxadiazol-2-one], 251 nM.
The same measure, in the same setting: for `Cc1cc(C#N)nc2ncn(Cc3nn([C@H]4C[C@](F)(c5ccc(F)cc5)C4)c(=O)o3)c(=O)c12` [compound 61, 3-[[4-[3-fluoro-3-(4-fluorophenyl)cyclobutyl]-5-oxo-1,3,4-oxadiazol-2-yl]methyl]-5-methyl-4-oxo-pyrido[2,3-d]pyrimidine-7-carbonitrile] the value was 11.2 nM.
Same read-out and setting: for `Cn1cnc2c(C#N)nn(Cc3nn(CCc4ccc(OC(F)F)cc4)c(=O)o3)c2c1=O` [compound 32, 1-[(4-[2-[4-(difluoromethoxy)phenyl]ethyl]-5-oxo-4,5-dihydro-1,3,4-oxadiazol-2-yl)methyl]-6-methyl-7-oxo-1H,6H,7H-pyrazolo[4,3-d]pyrimidine-3-carbonitrile] the value was 36 nM.
